Results on three compounds are retold here after patent US20230099106A1, “PRODRUGS USEFUL IN ADOPTIVE CELL THERAPY” (Memorial Sloan Kettering Cancer Center, priority 2020, published 2023).

Like-named read-outs stand apart in the source and are kept apart here.

In one data set the test system is PC9 (adenocarcinoma). Kind of data set: Cell-Titer Glo cytotoxicity assay, PC9 cells. The format is cell-based. Conditions: for IC50: Homo sapiens, PC-9, 48 hours of drug treatment, ≥ 6 drug dilutions (3-fold). As for the experimental part:
(§1) Prodrug/Drug IC50 and trans and cis-toxicity assays with secreted enzyme were performed using Cell-Titer Glo (Promega). Cells were analyzed in triplicate wells of a 96-well dish and equivalent volume of Cell-Titer Glo reagent was added to each well. Following a 10-minute incubation at room temperature samples were transferred to White 96-well Optiplate (Perkin Elmer) and luminescence was measured on a SpectraMax M2 plate reader (Molecular Devices). Data were analyzed with SoftMax Pro software.

A further data set deals with HCC827 (adenocarcinoma). Put plainly: Cell-Titer Glo cytotoxicity assay, HCC827 cells. It is filed as cell-based. Conditions: for IC50: Homo sapiens, 48 hours of drug treatment, ≥ 6 drug dilutions (3-fold); for cytotoxicity (cell viability): HCC827, 48 hrs. As for the experimental part:
FIG. 3 provides the results of HCC827 cells incubated for 48 hrs. with or without CPG2 in the presence of APdMG-Glu where cell viability was measured by Cell-Titre Glo, according to the working examples. The viability of the cells incubated with the active version of the drug (O-(3-aminopropyl)-des-morpholino-gefitinib) are shown for comparison.
as §1

Data set [1] deals with T1, CPG2 (Pseudomonas sp., UniProt P06621).
T1 construct: HA (C); His (C); host or cells: E. coli
It is filed as biochemical. To be noted: for Vmax: disappearance of substrate and/or appearance of product. The source says:
CPG2 proteins were produced and purified by GenScript. Constructs contain c-terminal HA and His epitope tags and were purified by nickel columns.

The target in data set [2] is T1, CPG2. Put plainly: Amplex Red glutamate release assay with recombinant CPG2. It is filed as biochemical. Conditions: incubated with recombinant CPG2, FIG. 2. As for the experimental part:
FIG. 2 provides the results of incubating APdMG-Glu, an embodiment of a prodrug compound of the present technology, with increasing concentration of recombinant CPG2 where glutamate release was measured in an Amplex Red assay, according to the working examples.
Recombinant CPG2 enzyme was incubated with prodrugs in CPG2 reaction buffer (1M TrisHCL, 2 mM ZnCl2) for 2 hr at 37° C. and the enzyme/prodrug mixture was combined 1:1 with Amplex Red™ Glutamate Oxidase Assay mixture (Thermo cat # A12221). Following 30 min at 37° C. fluorescent emission at 590 nm was measured on a SpectraMax M2 plate reader (Molecular Devices). Data were analyzed with SoftMax Pro software.

Where [3] appears, read: substrate of CPG2, RapidFire-MS.

T1 sequence (P06621 23-415): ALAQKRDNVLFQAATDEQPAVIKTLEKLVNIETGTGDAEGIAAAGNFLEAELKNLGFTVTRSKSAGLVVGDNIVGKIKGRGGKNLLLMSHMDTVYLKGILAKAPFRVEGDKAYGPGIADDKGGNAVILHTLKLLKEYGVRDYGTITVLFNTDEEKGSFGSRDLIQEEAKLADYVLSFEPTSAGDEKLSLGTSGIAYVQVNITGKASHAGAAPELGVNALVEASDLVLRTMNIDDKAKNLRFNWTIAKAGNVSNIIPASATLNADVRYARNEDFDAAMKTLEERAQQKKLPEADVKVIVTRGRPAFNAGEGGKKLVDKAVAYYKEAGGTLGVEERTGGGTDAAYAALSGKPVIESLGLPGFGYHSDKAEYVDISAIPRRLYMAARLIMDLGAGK

In the case of `COc1cc2ncnc(Nc3ccc(F)c(Cl)c3)c2cc1OCCCN` [APdMG, 6-(3-Aminopropoxy)-N-(3-chloro-4-fluorophenyl)-7-methoxyquinazolin-4-amine], the 50% inhibitory concentration (IC50) in the data set on PC9 (adenocarcinoma) amounted to 210 nM; with HCC827 (adenocarcinoma) (HCC827), 20 nM.

For the compound `COc1cc2ncnc(Nc3ccc(F)c(Cl)c3)c2cc1OCCCNC(=O)OCc1ccc(NC(=O)N[C@@H](CCC(=O)O)C(=O)O)cc1` [APdMG-Glu, ((4-((((3-((4-((3-chloro-4-fluorophenyl)amino)-7-methoxyquinazolin-6-yl)oxy)propyl)carbamoyl)oxy)methyl)phenyl)carbamoyl)-L-glutamic acid], the IC50 in the data set with PC9 (adenocarcinoma) came to 240 nM; in the data set with HCC827 (adenocarcinoma) (HCC827) it was 110 nM. Further, the Selective index with PC9 (adenocarcinoma) (prodrug vs active drug) is 6; in the data set on HCC827 (adenocarcinoma) (HCC827, prodrug vs active drug), 5.5. Moreover, the “cytotoxicity (cell viability)” value was “cytotoxicity comparable to that of the parent drug gefitinib” in the data set with HCC827 (adenocarcinoma) (plus recombinant CPG2, FIG. 3) and “not APdMG-Glu alone” in the data set with HCC827 (adenocarcinoma) (prodrug alone without CPG2, FIG. 3). In addition, the Km at CPG2 [1] (setting [3]) amounted to 2.25 µM. Moreover, the turnover number (kcat) on CPG2 [1] (setting [3]) is 0.137 s⁻¹. The maximal velocity (Vmax) at CPG2 [1] (setting [3]) worked out at 0.10 µM/s. The “cleavage of the glutamate moiety (glutamate release)” value at CPG2 [2] is “confirm cleavage of the glutamate moiety”.

For `CN(Cc1cnc2nc(N)nc(N)c2n1)c1ccc(C(=O)N[C@@H](CCC(=O)O)C(=O)O)cc1` [methotrexate, reference compound], at CPG2 [1], the Km is 9.45 µM. On CPG2 [1] (setting [3]), the kcat turned out to be 10.36 s⁻¹ and the maximum rate (Vmax) stood at 0.39 µM/s.

The IC50 is the concentration that inhibits the measured activity by half. High values mean weaker potency, low ones greater potency. One may read the Km as the substrate concentration at which the rate is half of its maximum. What is called kcat is the number of substrate molecules converted per active site and unit of time at saturation. One may read the Vmax as the top rate of the reaction or transport when substrate is in excess.
